From patent US20120258174A1, “Methods for Treating Bacterial Infection” (Innocoll Technologies Limited, priority 2011, published 2012)

Tested on: organisms isolated from the infected wounds at baseline
Test: Gentamicin MIC testing against all isolated pathogens up to 1024 μg/mL
Format: cell-based
Conditions: 87 of 95 organisms isolated at baseline
Description: Minimum inhibitory concentration (MIC) testing was performed on all isolated pathogens to determine susceptibility to systemic concentrations of levofloxacin, linezolid, vancomycin and oxacillin for gram-positive species and levofloxacin, aztreonam and piperacillin/tazobactam for gram-negative species. Definitive gentamicin MIC testing against all isolated pathogens up to 1024 μg/mL to mimic high local concentrations were also performed.

CN[C@@H]1[C@@H](O)C(O[C@@H]2[C@@H](O)[C@H](O[C@H]3O[C@H]([C@@H](C)NC)CC[C@H]3N)[C@@H](N)C[C@H]2N)OC[C@]1(C)O (stereo partly drawn) [gentamicin, (3R,4R,5R)-2-{[(1S,2S,3R,4S,6R)-4,6-diamino-3-{[(2R,3R,6S)-3-amino-6-[(1R)-1-(methylamino)ethyl]oxan-2-yl]oxy}-2-hydroxycyclohexyl]oxy}-5-methyl-4-(methylamino)oxane-3,5-diol]
organisms whose gentamicin MIC would be exceeded by a local concentration of up to 1000 μg/mL: 92%
